Source: patent publication US20060003364A1, “GLUT1 transporters expressed in cancer cells” (XenoPort, Inc., priority 2004, published 2006)

Experiments:
GLUT1 [1] = target: T1, GLUT1 (Homo sapiens, UniProt P11166); conditions: cited from earlier work
T1 sequence (P11166 1-492): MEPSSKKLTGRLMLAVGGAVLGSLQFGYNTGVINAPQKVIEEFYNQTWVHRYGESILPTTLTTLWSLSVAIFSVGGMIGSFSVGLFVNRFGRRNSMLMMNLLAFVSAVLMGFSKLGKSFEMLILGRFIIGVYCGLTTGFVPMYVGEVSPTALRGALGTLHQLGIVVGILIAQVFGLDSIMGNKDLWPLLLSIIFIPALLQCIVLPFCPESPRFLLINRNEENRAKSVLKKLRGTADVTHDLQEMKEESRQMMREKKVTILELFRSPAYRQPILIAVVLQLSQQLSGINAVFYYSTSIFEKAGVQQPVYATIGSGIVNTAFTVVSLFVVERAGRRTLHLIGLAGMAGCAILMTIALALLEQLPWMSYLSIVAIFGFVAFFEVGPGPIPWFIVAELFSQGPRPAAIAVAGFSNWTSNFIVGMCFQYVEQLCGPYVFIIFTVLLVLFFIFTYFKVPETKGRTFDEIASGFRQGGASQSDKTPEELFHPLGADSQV

GLUT1 [2] = target: T1, GLUT1; assay: Radiolabel glucose uptake in Xenopus oocytes expressing GLUT1; type: cell-based; parameters: expressed in transfected cells; host or cells: Xenopus oocytes (cRNA injected); conditions: oocytes expressing GLUT1 vs noninjected controls; 3 minutes, ND96 buffer
Method: To assess transport function of a specific transporter protein, it can be desirable to clone the cDNA and express the protein in cells that have low endogenous transport activity. Human GLUT1 was cloned by PCR, fully sequenced, and subcloned into plasmids that can be used for expression in mammalian cells or Xenopus oocytes. […] For expression in Xenopus oocytes, in vitro GLUT1 cRNA was prepared and injected into defoliculated oocytes.
Oocytes expressing GLUT1 or control oocytes not expressing GLUT1 were incubated in an oocyte ringers (ND96) buffer ([…], 10 mM HemiNa HEPES, 2 mM KCl, 1 mM MgCl, 1.8 mM CaCl2) containing 0.5% bovine serum albumin and 3H-glucose (10^6 CPM/ml) for 3 minutes. Oocytes were washed and uptake of radiolabel quantified by scintillation counting.

| Compound | Reported Affinity for GLUT1 (GLUT1 [1]) | 3H-glucose uptake (GLUT1 [2]) |
| --- | --- | --- |
| (S)-methoxy-a-methyl-2-napthalene acetic acid amido galacto pyranose | 1 mM | – |
| O=C[C@H](O)[C@@H](O)[C@@H](O)[C@H](O)CO [Galactose] | 4 mM | – |
| N[C@H]1C(O)O[C@H](CO)[C@@H](O)[C@@H]1O (stereo partly drawn) [Glucosamine] | 9 mM | – |
| O=C1O[C@H]([C@@H](O)CO)C(=O)C1=O [Dehydroascorbic Acid] | 0.8 mM | – |
| Fluorodeoxyglucose | 4 mM | – |
| O=C[C@H](O)[C@@H](O)[C@H](O)[C@H](O)CO [^3H-glucose] | – | higher levels of ^3H-glucose uptake than noninjected controls |
